{"source": "paper PMC11500415", "about": "“Chemical inhibition of stomatal differentiation by perturbation of the master-regulatory bHLH heterodimer via an ACT-Like domain” (Nature Communications, 2024)", "tested_on": "Arabidopsis stomatal development mutants (spch, mute, fama, er, erl1, erl2, hdg2, atml1, scrm, scrm2, scrm-D and suppressors)", "test": "Stomatal development bioassay in mutant seedlings, liquid culture", "assay_type": "in vivo", "details": "50 μM; for meristemoids density: single seedlings n=8 (Fig. 3c)", "protocol": "Arabidopsis accession Columbia (Col-0) was used as wild-type. […] Their genotype and transcript reduction were confirmed. The presence of transgenes/mutant alleles were confirmed by genotyping. For liquid culture with Stomidazolone (AYSJ929, compound 3), the analogs (AYSJ1059 (compound 5) and AYSJ1061 (compound 6)), degraded compound lzx103 (compound 4), and SIM3* (compound 7), all compounds were dissolved in dimethyl sulfoxide (DMSO, Molecular biology grade, Fujifilm Wako, Japan 046-21981), Col-0 seeds were sown in 96-well plates (TL5003; True Line) containing 95 μL of 1/2 MS media containing 0.5% sucrose with rotary shaking at 140 rpm under continuous light at 22 °C. Five μL of compounds were dissolved in DMSO at 10 mM and diluted with liquid 1/2 MS media to 1 mM and added on 1-day-old seedlings (final concentration, 50 μM). Seedlings were incubated for 8 days, and at day 9 seedling abaxial cotyledons were observed through confocal microscopy. For liquid culture of scrm-D_S343 and scrm-D_S423, 1/2 MS liquid media without sucrose was used. For the solid culture, 0, 20, 50 or 100 μM Stomidazolone were solidified with low-melting agarose (5805S, PrimeGelTM Agarose LMT 1-20 K, TAKARA Bio). Briefly, 1/2 MS salt, 0.5% sucrose, and 0.8% low melting agarose were mixed in water and autoclaved. After cooling the medium at around 30 °C, Stomidazolone (500x, dissolved in DMSO) was added and poured into 90 mm petri dishes (Asnol Petri Dish JP φ90 x 15 mm, 3-1491-01, AS ONE). Col-0 seeds were sown on Stomidazolone-containing 1/2 MS agarose media and grown under continuous light for 9 days.\nFor confocal microscopy, cell peripheries of seedlings were visualized with propidium iodide (Sigma, P4170). Images were acquired using LSM800 or LSM700 (Zeiss) using a 20x lens. The GFP, YFP reporter and PI signals were detected with excitation at 488 nm and an emission filter of 410 to 546 nm, at 488 nm and an emission filter of 410 to 546 nm, and with excitation at 561 nm and 582–617 nm emission range, respectively. Raw data were collected with 1024 × 1024 pixel images. For qualitative image presentation, Adobe Photoshop CC was used to trim and uniformly adjust the contrast/brightness.\nFor quantitative analysis of the abaxial leaf epidermis, confocal images were taken on the days after germination as indicated in the Figure legends. Preparation of images was done as described previously[32],[70]. For counting epidermal cell types, stomatal density, stomatal precursor cells (meristemoids), total stomata-lineage cells (stomata and meristemoids) were calculated by counting cell types in an area of 0.4 mm^2 (0.63 mm × 0.63 mm) and plotted as per mm^2. A series of Z-stack confocal images was obtained to obtain images covering the epidermis and capturing GFP/YFP signal from the reporter lines. The area and the number of epidermal cells were quantified by using FIJI-ImageJ. Statistical analyses were performed using R ver. 4.0.2. Sample sizes (n) are indicated and defined in each legend. For the multiple sample comparison, 1-way ANOVA was performed followed by a post hoc Tukey HSD test. For the two-sample comparison, Student’s T-test was performed. Graphs were generated using R ggplot2 package. For all boxplots, each box represents IQR (interquartile range), in which top, middle line, and bottom indicating 75, 50, and 25 percentiles, respectively, and the bar representing maximum to minimal values. Each magenta dot represents jittered individual data point. The datapoints that go beyond the bar are outliers, which are indicated as black dots. If the data point is greater than Q3 + 1.5*IQR (above the third quartile is greater than 1.5 times of the interquartile range) or less than Q1 − 1.5*IQR, that data point is classified as outlier. The color of Boxplot graph was based on ColorBrewer.org. The value of n, the number of each experiment or samples, the means of error bars, and how statistical significance was defined are indicated in a relevant figure legend. […]", "key": {"[1]": {"details": "er erl1, single seedlings n=8 (Fig. 4f)"}, "[2]": {"details": "scrm-D_S343, single seedlings n=8 (Fig. 5n)"}}, "note": "“And” between values parts separate entries of the source, which are not always exact repeats. Identical values can stand only once."}
{"smiles": "O=C1C(c2ccccc2)=NC(NS(=O)(=O)c2ccccc2)(c2ccccc2)N1S(=O)(=O)c1ccccc1", "note": "(stereo not shown) [Stomidazolone]", "values": [{"measurement": "effect on epidermal phenotype (in words)", "setting": "er (er-105)", "result": "the number of stomata drastically decreased and the meristemoids vastly increased"}, {"measurement": "effect on epidermal phenotype (in words)", "setting": "er erl1", "result": "did not reduce the number of stomata, although it increased the number of meristemoids"}, {"measurement": "Stomata density", "setting": "[1]", "result": "204 per mm2 and 275 per mm2 and 292 per mm2"}, {"measurement": "Total (stomata+meristemoid) density", "setting": "[1]", "result": "382 per mm2 and 272 per mm2 and 360 per mm2 and 323 per mm2 and 292 per mm2 and 347 per mm2 and 369 per mm2"}, {"measurement": "effect on epidermal phenotype (in words)", "setting": "er erl1 erl2", "result": "insensitive"}, {"measurement": "Meristemoid density", "setting": "er erl1 erl2, single seedlings n=8 (Fig. 4j, replotted 4k)", "result": 0, "unit": "per mm2"}, {"measurement": "effect on epidermal phenotype (in words)", "setting": "er erl2", "result": "The number of arrested meristemoids is even more increased"}, {"measurement": "effect on epidermal phenotype (in words)", "setting": "fama", "result": "significantly reduced the number of fama tumors whereas increasing the number of arrested meristemoids"}, {"measurement": "effect on epidermal phenotype (in words)", "setting": "hdg2", "result": "increased the meristemoid numbers of hdg2 epidermis while the total numbers of stomata and meristemoids were unaffected"}, {"measurement": "Total (stomata+meristemoid) density", "setting": "hdg2 (hdg2-2), single seedlings n=8 (Fig. 4m)", "result": "149 per mm2 and 112 per mm2 and 171 per mm2 and 93 per mm2 and 137 per mm2 and 107 per mm2 and 141 per mm2"}, {"measurement": "effect on epidermal phenotype (in words)", "setting": "hdg2 atml1", "result": "hypersensitivity"}, {"measurement": "Total (stomata+meristemoid) density", "setting": "hdg2 atml1 (hdg2-2 atml1-3), single seedlings n=8 (Fig. 4o)", "result": "92 per mm2 and 141 per mm2 and 156 per mm2 and 153 per mm2 and 112 per mm2 and 109 per mm2"}, {"measurement": "effect on epidermal phenotype (in words)", "setting": "mute", "result": "not enhanced"}, {"measurement": "meristemoids density", "setting": "mute (mute-1)", "result": "296 per 1 mm2 and 243 per 1 mm2 and 204 per 1 mm2 and 289 per 1 mm2 and 350 per 1 mm2 and 267 per 1 mm2 and 187 per 1 mm2"}, {"measurement": "effect on epidermal phenotype (in words)", "setting": "scrm2-1", "result": "reduction of the number of stomata with meristemoid arrests"}, {"measurement": "Stomatal index SI (%)", "setting": "scrm2-1, single seedlings n=8 (Fig. 5f)", "result": "25.2% and 23.5% and 22.4% and 18.0% and 27.0% and 24.1% and 26.7% and 15.5%"}, {"measurement": "effect on epidermal phenotype (in words)", "setting": "scrm (ice1-2)", "result": "severely reduced stomatal lineage initiation"}, {"measurement": "effect on epidermal phenotype (in words)", "setting": "scrm scrm2-1", "result": "no effects"}, {"measurement": "Stomatal index SI (%)", "setting": "scrm scrm2-1, single seedlings n=7 (Fig. 5h)", "result": 0, "unit": "%"}, {"measurement": "effect on epidermal phenotype (in words)", "setting": "scrm-D", "result": "not affected"}, {"measurement": "Stomatal index SI (%)", "setting": "scrm-D, single seedlings n=8 (Fig. 5j)", "result": "100.0% and 99.0% and 98.0%"}, {"measurement": "SI (%)", "setting": "[2]", "result": "10.3% and 14.9% and 8.1% and 11.9% and 12.8% and 12.5% and 9.6% and 12.1%"}, {"measurement": "small cells index (%)", "setting": "[2]", "result": "31.8% and 53.1% and 60.4% and 54.1% and 50.8% and 47.7% and 36.1%"}, {"measurement": "effect on epidermal phenotype (in words)", "setting": "scrm-D_S343 and scrm-D_S423", "result": "triggered excessive formation of arrested meristemoids"}, {"measurement": "effect on epidermal phenotype (in words)", "setting": "scrm-D_S343 scrm2-1 and scrm-D_S423 scrm2-1", "result": "insensitivity"}, {"measurement": "SI (%)", "setting": "scrm-D_S423, single seedlings n=8 (Fig. 5p)", "result": "0.7% and 1.2% and 0.0% and 1.4% and 3.0%"}, {"measurement": "effect on epidermal phenotype (in words)", "setting": "spch", "result": "no effects"}, {"measurement": "meristemoids density", "setting": "spch (spch-3)", "result": 0, "unit": "per 1 mm2"}]}
